In assay [1] the test system is Mycobacterium tuberculosis. Nature of the assay: Antimycobacterial activity against multidrug-resistant Mycobacterium tuberculosis 43 assessed as bacterial growth at 5 uM after 45 days by Lowenstein-Jensen method. Format: functional.
Assay [2] has as its system Mycobacterium tuberculosis. Nature of the assay: Antimycobacterial activity against multidrug-resistant Mycobacterium tuberculosis 43 assessed as growth inhibition after 45 days by Lowenstein-Jensen method. Format: functional.

These results are taken from ChEMBL document CHEMBL2375250, “Efficient synthesis of new (R)-2-amino-1-butanol derived ureas, thioureas and acylthioureas and in vitro evaluation of their antimycobacterial activity” (Eur J Med Chem, 2013).

≈ marks a conversion by molar mass, not a printed value.

As to `CC[C@H](CO)NC(=S)NC(=O)CCc1ccccc1`, in assay [1], the Activity is recorded as 100%. In addition, the MIC in assay [2] is greater than 17.8 µM.
As to `CC[C@H](CO)NC(=S)NC(=O)c1ccccc1O`, the minimal inhibitory concentration (MIC) in assay [2] came out at 7.46 µM (≈ 2 µg/mL).
For the compound `CC[C@H](CO)NC(=S)NC(=O)/C=C/c1ccccc1`, in assay [1], the Activity was 100%. Besides, in assay [2], the minimum inhibitory concentration (MIC) was greater than 18 µM.
For `CC[C@H](CO)NC(=S)NC(=O)c1ccc(N(C)C)cc1`, in that order: 100% and greater than 16.9 µM.

As usually defined, the MIC is the smallest concentration in the dilution series that meets the test's criterion for growth inhibition.
